ChEMBL document CHEMBL4052590, “Anti-Osteoporotic Activity of Harpagoside by Upregulation of the BMP2 and Wnt Signaling Pathways in Osteoblasts and Suppression of Differentiation in Osteoclasts” (J Nat Prod, 2017)
Activity calls are given as the source filed them. No cut-off for these calls is given here.

Columns and labels:
Mus musculus [1] = assay: Effect on calcium level in serum of OVX-induced bone loss ICR mouse model at 10 ug/kg, po via gavage for 12 weeks by ELISA (reference value: 9.3 +/- 0.3 mg/dl); format: functional
Mus musculus [2] = assay: Effect on […] level in serum of OVX-induced bone loss ICR mouse model at 10 ug/kg, po via gavage for 12 weeks by ELISA (reference value: 8.2 +/- 0.4 mg/dl); format: functional
Mus musculus [3] = assay: Effect on alkaline phosphatase activity in serum of OVX-induced bone loss ICR mouse model at 10 ug/kg, po via gavage for 12 weeks using p-NPP as substrate (reference value: 84.9 +/- 4.2 U/L); format: functional
Mus musculus [4] = assay: Effect on TRAP activity in serum of OVX-induced bone loss ICR mouse model at 10 ug/kg, po via gavage for 12 weeks (reference value: 19.8 +/- 1.0 U/L); format: functional
Mus musculus [5] = assay: Effect on osteocalcin level in serum of OVX-induced bone loss ICR mouse model at 10 ug/kg, po via gavage for 12 weeks by ELISA (reference value: 176.9 +/- 4.7 ng/ml); format: functional
Mus musculus [6] = assay: Effect on C-terminal telopeptide level in serum of OVX-induced bone loss ICR mouse model at 10 ug/kg, po via gavage for 12 weeks by ELISA (reference value: 95.7 +/- 3.8 ng/ml); format: functional
Mus musculus [7] = assay: Anti-osteoporotic activity in OVX-induced bone loss ICR mouse model assessed as decrease in trabecular bone destruction in femur at 10 ug/kg, po administered for 12 weeks via gavage by microcomputed tomography; format: functional, organism-based

`C[C@]12CC[C@@H]3c4ccc(O)cc4CC[C@H]3[C@@H]1CC[C@@H]2O` [ESTRADIOL] showed an Activity (Mus musculus [1]) of 9.1 mg/dL, an Activity (Mus musculus [2]) of 7.9 mg/dL and an Activity (Mus musculus [3]) of 59.9 U/L. For the same molecule, the Activity (Mus musculus [4]) was 10.8 U/L, the Activity (Mus musculus [5]) was 141.9 ng/mL and the Activity (Mus musculus [6]) was 76.6 ng/mL. For the same molecule, the Activity (Mus musculus [7]) was “Active”.
